Data reported in PMC7415805 (Theranostics, 2020).

Experiments:
[1] = tested on: MDA-MB-231 cells transfected with pCMV-shTSPO/eGFP; assay: [18F]CB251 uptake in cells with reduced TSPO expression; format: cell-based, human; details: MDA-MB-231 cells with reduced TSPO expression vs control
Procedure: (§1) For overexpression of the TSPO protein, the 293FT cell line was transiently transfected with vectors (pCMV-eGFP/TSPO) (AddGene, Cambridge, MA, USA) harboring the eGFP and TSPO coding sequences. MDA-MB-231, which highly expresses TSPO, was used for the reduction of TSPO expression by shRNA (pCMV-eGFP/shTSPO; AddGene). Each vector used for various levels of TSPO expression was transfected by Lipofectamine 2000 (Invitrogen, Waltham, MA, USA) at a total concentration of 2.5 µg/mL. Fluorescent images were acquired by a confocal laser-scanning microscope (Leica TCS SP8; Wetzlar, Hesse, Germany), and Western blotting was performed for verification.
(§2) Cells were seeded in 6-well plates (Sigma-Aldrich) until they reached approximately 80% confluency. Before the uptake experiments, the cells were preincubated with glucose-free RPMI-1640 medium (Gibco) for 4 h. The cells were then trypsinized (Gibco), counted, and 1×10^5 cells transferred into a 5 mL test tube containing warmed Hank's balanced salt solution (HBSS, Sigma-Aldrich) with 0.5% (w/v) bovine serum albumin (Sigma-Aldrich). […] Cell lysates were collected, and radioactivity was measured by a Cobra II gamma counter (Canberra Packard; Vaughan, Ontario, Canada). Radioactivity was normalized according to the amount of total protein at the time of assay. Total protein levels were quantified by the BCA protein assay kit (Pierce, Rockford, IL, USA). […]

[2] = tested on: 293FT cells expressing polymorphic TSPOs; assay: PET scans of 293FT cells expressing polymorphic TSPOs (phantoms and mice bearing the cells); design: species or system human; details: phantoms and mice bearing 293FT cells with polymorphic TSPOs
TSPO [3] = molecular target: T1, TSPO (Mus musculus, UniProt P50637); assay: [18F]CB251 PET/MR in intracranial LPS neuroinflammation model; format: in vivo; details: saline-injected mice, day 4; p=0.012
T1 construct: from tissue; host or cells: brain (striatum) of living C57BL/6 mice after intracranial LPS or saline
T1 sequence (P50637 whole entry): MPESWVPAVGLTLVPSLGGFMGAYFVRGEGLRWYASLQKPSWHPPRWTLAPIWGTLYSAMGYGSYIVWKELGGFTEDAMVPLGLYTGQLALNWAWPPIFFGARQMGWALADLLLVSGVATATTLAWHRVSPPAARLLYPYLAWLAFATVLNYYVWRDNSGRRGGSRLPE
Procedure: C57BL/6 mice (male, 6 weeks old) were used for generating the intracranial inflammation model. LPS (Sigma-Aldrich, 5 µg/2 µL dissolved in saline) was used to induce local inflammation in the right striatum of the mouse brain (anteroposterior, +1.8; mediolateral, +2.0; dorsoventral, -3.0) via intracranial injection by a robotic stereotaxic device (Stoelting, Wood Dale, IL) equipped with a Hamilton syringe at a rate of 0.25 µL/min [52]-[54]. Saline was injected as a control. The mouse was placed in the isoflurane induction box (5% isoflurane, 95% air, 250 cc/min) until the animal was fully anesthetized, and the isoflurane percentage was adjusted to 2% at a flow rate of 250 cc/min during the process.
To visualize neuroinflammation, PET/MR scans were acquired by a simultaneous small animal PET insert (SimPET, Brightonic imaging, Seoul, Korea) combined with an M7 1.0 T MRI system (Aspect Imaging, Jerusalem, Israel). […] Mice were anesthetized with 1.5% isoflurane during imaging.
(§3) PET images were reconstructed using 3D OSEM algorithm (12 subsets and 3 iterations). […] PET and MR images were reconstructed and analyzed by the AMIDE program (ver 0.9.0, http://amide.sourceforge.net). The ratio of maximum PET SUV in the right and left striatum was then calculated.

RAW264.7 = assay: [18F]CB251 uptake in activated macrophage cell line; format: cell-based, mouse; details: RAW264.7 activated with LPS and IFN-γ for 24 h vs non-activated
Procedure: (§4) RAW264.7, a mouse macrophage cell line and mouse splenocytes were used to evaluate TSPO expression. LPS (50 ng/mL, Sigma-Aldrich, St.Louis, MO, USA) and IFN-γ (20 ng/mL, Sigma-Aldrich) were used to activate immune cells. The 293FT (Invitrogen, Carlsbad, CA, USA) and MDA-MB-231 (ATCC, Manassas, VA, USA) cell lines were used for various TSPO expression levels. Cells were maintained in complete DMEM (for Raw264.7 and MDA-MB-231) or MEM (for 293FT) with 10% FBS and 1% antibiotics (penicillin-streptomycin). All media and reagents for cell culture, including FBS and antibiotics were purchased from Gibco (Grand Island, NY, USA).
as §2

[4] = tested on: 293FT cells transfected with pCMV-TSPO/eGFP; assay: [18F]CB251 uptake in TSPO-overexpressing cells; format: cell-based, human; details: TSPO-overexpressing 293FT cells vs control
Procedure: as §1, §2

[5] = tested on: 293FT cells expressing polymorphic TSPO; assay: In vitro cellular uptake of radioactive ligands in cells expressing polymorphic TSPO; format: cell-based, human; details: 293FT cells expressing TSPO WT or Mut-A147T; 1 h at 37°C
Procedure: Cells were seeded in 6-well plates (Sigma-Aldrich) until they reached approximately 80% confluency. […] The cells were then trypsinized (Gibco), counted, and 1×10^5 cells transferred into a 5 mL test tube containing warmed Hank's balanced salt solution (HBSS, Sigma-Aldrich) with 0.5% (w/v) bovine serum albumin (Sigma-Aldrich). […] The cells were then washed 3 times with cold HBSS and lysed for 5 min in 200 μL of 1% sodium dodecyl sulfate (SDS, Sigma-Aldrich). Cell lysates were collected, and radioactivity was measured by a Cobra II gamma counter (Canberra Packard; Vaughan, Ontario, Canada). Radioactivity was normalized according to the amount of total protein at the time of assay. Total protein levels were quantified by the BCA protein assay kit (Pierce, Rockford, IL, USA). All experiments were performed in triplicate.

mouse splenocytes = assay: [18F]CB251 uptake in activated splenocytes; format: cell-based; details: mouse splenocytes activated with LPS and IFN-γ for 24 h vs non-activated
Procedure: as §4, §2

[6] = tested on: intracranial LPS-induced neuroinflammation; assay: Anti-inflammatory treatment in intracranial LPS neuroinflammation model, read by [18F]CB251 PET and BLI; format: in vivo, mouse; details: CDDO-Me i.p. once daily for 3 days after LPS vs LPS-injected mice
Procedure: Luciferase-expressing cells were isolated from the dissected spleens of transgenic C57BL/6luc^Tg mice and centrifuged at 1300 rpm for 5 min at 4 °C). The red blood cell lysis buffer (1 mL/spleen, Sigma-Aldrich) was added to the cell pellet, and the mixture was incubated at room temperature for 3 min to remove red cells. After a double volume of RPMI medium was added to the cells, 2-3 volumes of red blood cell lysis buffer were added until complete lysis of red blood cells. Subsequently, the cells were re-suspended, ensuring a suspension of single cells, and filtered through a cell strainer (40 µm nylon, Falcon, Oneonta, NY). […] Bioluminescence intensity was measured by an IVIS 100 system (Perkin Elmer, Waltham, MA). […]
as §3
An in vivo IVIS 100 bioluminescence/optical imaging system (Xenogen, Alameda, CA, USA) was used to follow luciferase-expressing peripheral immune cells. […] The bioluminescent signal was acquired and analyzed by Living Image ver.2.50.2 software (Xenogen). […]

TSPO A147T mutant (LAB) = details: previous reports; cited from earlier work
TSPO [7] = details: Ki of ligands for TSPO; cited from earlier work

For `CCCN(CCC)C(=O)Cc1c(-c2ccc(OCCF)cc2)nc2c(Cl)cc(Cl)cn12` [CB251], the “[18F]CB251 uptake” value [1] was “decreased”, the “sensitivity of PET signal to TSPO polymorphism” value [2] was “less sensitive to TSPO polymorphism” and the “[18F]CB251 PET signal, saline-injected right striatum vs non-injected left striatum” value (TSPO [3]) was “increased slightly”. For the same compound, the “[18F]CB251 uptake” value (RAW264.7) was “increased”, the “[18F]CB251 uptake” value [4] was “increased” and the “sensitivity of cellular uptake to TSPO polymorphism” value [5] was “much less sensitive to TSPO polymorphism”. For the same compound, the “[18F]CB251 uptake” value (mouse splenocytes) was “increased”.
With `COC(=O)[C@]12CCC(C)(C)C[C@H]1[C@H]1C(=O)C=C3[C@@]4(C)C=C(C#N)C(=O)C(C)(C)[C@@H]4CC[C@@]3(C)[C@]1(C)CC2` [CDDO-Me, 2-Cyano-3,12-dioxo-oleana-1,9(11)-dien-28-oic acid methyl ester] the “BLI signal ratio (total photon flux, right/left striatum)” value ([6]; p=0.0025) was “decreased dramatically” and the “[18F]CB251 uptake ratio (SUVmax, right/left striatum)” value ([6]; p=0.0323) was “significantly decreased”.
For `COc1ccccc1CN(C(C)=O)c1cnccc1Oc1ccccc1` [PBR28, reference compound], the “ratio of IC50 LAB/HAB” value (TSPO A147T mutant (LAB)) is listed as 55 and the Ki (TSPO [7]) is listed as 6.1 nM.
For `CCC(C)N(C)C(=O)c1cc2ccccc2c(-c2ccccc2Cl)n1` (stereo not drawn) [PK11195, reference compound], the “sensitivity of cellular uptake to TSPO polymorphism” value [5] was “much less sensitive to TSPO polymorphism”.
